# Reference: patent publication US20080113907A1, “Uses Of Galectin-2” (Charite-Universitat-Smedizin Berlin, priority 2004, published 2008)
# B1: CD7 (receptor, human, UniProt P09564 26-240, looked up)
# chain: AQEVQQSPHCTTVPVGASVNITCSTSGGLRGIYLRQLGPQPQDIIYYEDGVVPTTDRRFRGRIDFSGSQDNLTITMHRLQLSDTGTYTCQAITEVNVYGSGTLVLVTEEQSQGWHRCSDAPPRASALPAPPTGSALPDPQTASALPDPPAASALPAALAVISFLLGLGLGVACVLARTQIKKLCSWRDKNSAACVVYEDMSHSRCNTLSSPNQYQ
# notes: whole, on cells
# B2: Galectin-2 (ligand, UniProt P05162 1-132, looked up)
# chain: MAGELEVKNMDMKPGSTLKITGSIADGTDGFVINLGQGTDKLNLHFNPRFSESTIVCNSLDGSNWGQEQREDHLCFSPGSEVKFTVTFESDKFKVKLPDGHELTFPNRLGHSHLSYLSVRGGFNMSSFKLKE
# modifications: biotinylated (sites not given) in the flow cytometry binding assays; coupled to tosylactivated magnetic beads in the pull-down
# notes: The NcoI site gave a Thr(Ser)2Ala substitution: Thr in human, Ser in rat; also called Gal-2; biotinylated Gal-2
# Assays:
# [1] = tested on: T cells (PBT, LPT); experiment: Adhesion assay to collagen type I and fibronectin; format: cell-based, human; details: CD3 activated PBT
# Procedure: 96 well flat-bottom plates were precoated overnight at 4° C. with 12 μg/well fibronectin (Chemicon) in DPBS, 40 μg/well collagen type I (Sigma-Aldrich) in 0.1 M acetic acid, or 3% BSA (Sigma-Aldrich) in DPBS as a control and then washed three times with DPBS. Freshly isolated T cells were fluorescently-labelled with 5 μM calcein-AM (Molecular Probes, Eugene, Oreg.) for 30 min at 37° C. in 5% CO2 at 5×10^6 cells/ml in RPMI. The cells were then washed three times with RPMI containing 5% FCS. Calcein-labelled T cells were resuspended in RPMI and 5×10^5 T cells/well were added to 96-well plates containing purified ECM components or BSA for the indicated times. Saturating concentrations of integrin-blocking mAbs (predetermined by flow cytometry) were preincubated with T cells for 30 min at 37° C. before adding T cells to the wells for the adhesion assay. Nonadherent cells were removed by a standardized washing technique that was developed to minimize background binding, which includes both an orbital and a rocking motion repeated three times with RPMI. Adhesion was quantified with a multiwell fluorescent spectrophotometer (Tecan, Groedig, Austria). For each experimental group the results were expressed as the mean percentage±SD of bound T cells from triplicate wells.
# [2] = tested on: T cells (PBT, LPT); experiment: Integrin accessibility on T cell surface (flow cytometry); format: cell-based, human; details: CD3 activated PBT
# Procedure: For surface staining, cells were washed twice in ice-cold PBS and 1×10^6 cells were resuspended in flow buffer (HBSS containing 1% BSA and 0.1% sodium azide). Cells were incubated with the respective mAb at predetermined saturating concentrations or with isotype-matched nonspecific mouse mAb (DAKO) for 30 min at 4° C., washed twice with flow buffer, and incubated with FITC-conjugated goat anti-mouse IgG for 30 min at 4° C. The cells were again washed twice with flow buffer, fixed in 1% paraformaldehyde and analyzed by a single laser flow cytometer (FacsCalibur, […]), using Cell Quest software (BD Pharmingen). Cells stained with a negative control Ab were gated to contain <2% positive cells. To perform analysis of intracellular proteins, cells were washed twice with PBS, adjusted to 1×10^6 cells per sample, and fixed in 90% methanol at −20° C. After fixation, cells were washed twice with PBS and incubated with a monoclonal mouse anti-bax, Bcl-2, Rb, Cyclin A, p21, p27, or p53 antibody for 45 minutes at 4° C., followed by an incubation with a goat anti-mouse FITC-conjugated mAb (Biosource) for 45 minutes at 4° C. Thereafter cells were washed and analyzed by flow cytometry as described above. The background level of immunofluorescence was determined by incubating cells with FITC-conjugated mouse IgG (isotype control).
# [3] = tested on: CD3, CD7, β1 integrin; experiment: Magnetic separation / co-immunoprecipitation of galectin containing complexes; format: binding, human; details: galectin coated beads, immunoblot for CD3, CD7, β1
# Procedure: For immunoblotting cells were washed in PBS, and lysed in cell lysis buffer (1% Triton-X, 0.5% NP-40, 0.1% SDS, 0.5% sodium deoxycholate, 5 mM EDTA, 50 mM and 50 mM protease- and phosphatase-inhibitor cocktail 2, 1 mM PMSF, 100 μg/ml trypsin-chymotrypsin inhibitor, 100 μg/ml chymostatin in PBS). The concentration of proteins in each lysate was measured using the Bio-Rad protein assay (Bio-Rad Laboratories, Hercules, Calif.). Equivalent amounts of protein (10 μg) were fractionated on a 10-20% Tris-glycine gel and electrotransferred to a nitrocellulose membrane (Novex, San Diego, Calif.). Membranes were blocked with 5% milk in 0.1% Tween 20-PBS (Fisher Scientific, Hanover Park, Ill.), followed by incubation for 60 m in at room temperature with the indicated primary antibody. The membranes were washed six times with 0.1% Tween 20-PBS and then incubated for 1 h with the appropriate horseradish peroxidase-conjugated secondary antibody (Santa Cruz Biotechnology), washed, and incubated with the chemiluminescent substrate (Perkin-Elmer, Carlsbad, Calif.) for 5 minutes. The membranes were then exposed to film (Amersham, Arlington Heights, Ill.). […]
# [4] = tested on: PBT; experiment: Analysis of T cell cycling (DNA content, cyclin B1, cell cycle regulators); format: cell-based, human; details: anti-CD3 activated PBT; dropped from 8% (galectin-1) and 7% (galectin-7)
# Procedure: For immunoblotting cells were washed in PBS, and lysed in cell lysis buffer (1% Triton-X, 0.5% NP-40, 0.1% SDS, 0.5% sodium deoxycholate, 5 mM EDTA, 50 mM and 50 mM protease- and phosphatase-inhibitor cocktail 2, 1 mM PMSF, 100 μg/ml trypsin-chymotrypsin inhibitor, 100 μg/ml chymostatin in PBS). The concentration of proteins in each lysate was measured using the Bio-Rad protein assay (Bio-Rad Laboratories, Hercules, Calif.). Equivalent amounts of protein (10 μg) were fractionated on a 10-20% Tris-glycine gel and electrotransferred to a nitrocellulose membrane (Novex, San Diego, Calif.). Membranes were blocked with 5% milk in 0.1% Tween 20-PBS (Fisher Scientific, Hanover Park, Ill.), followed by incubation for 60 m in at room temperature with the indicated primary antibody. The membranes were washed six times with 0.1% Tween 20-PBS and then incubated for 1 h with the appropriate horseradish peroxidase-conjugated secondary antibody (Santa Cruz Biotechnology), washed, and incubated with the chemiluminescent substrate (Perkin-Elmer, Carlsbad, Calif.) for 5 minutes. The membranes were then exposed to film (Amersham, Arlington Heights, Ill.).
# Flow cytometry was performed after staining for DNA content, and cyclin B1, essentially as previously described (21). Briefly, cells were washed twice with PBS, adjusted to 1×10^6 cells/sample and fixed in 90% Methanol at −20° C. After fixation, cells were washed twice with PBS, incubated for 45 min at 4° C. with a cyclin B1-FITC conjugated monoclonal antibody. After the final wash, cells were resupended in PBS and 5 μl of RNase (0.6 μg/ml, 30-60 Kunitz Units, Sigma), incubated at 37° C. for 15 min and the chilled on ice. One hundred and twenty five microliters of PI (200 μg/ml) were added prior to analysis by flow cytometry. Each analysis was performed on at least 25.000 events.
# [5] = biological target: T1, BSA (UniProt P02769 25-607, coupled to tosylactivated magnetic beads); experiment: pull-down from T cells with BSA-coated magnetic beads, Western blot
# T1 construct: Negative control for the bead pull-down; also called BSA control
# T1 sequence (P02769 25-607 limits assumed): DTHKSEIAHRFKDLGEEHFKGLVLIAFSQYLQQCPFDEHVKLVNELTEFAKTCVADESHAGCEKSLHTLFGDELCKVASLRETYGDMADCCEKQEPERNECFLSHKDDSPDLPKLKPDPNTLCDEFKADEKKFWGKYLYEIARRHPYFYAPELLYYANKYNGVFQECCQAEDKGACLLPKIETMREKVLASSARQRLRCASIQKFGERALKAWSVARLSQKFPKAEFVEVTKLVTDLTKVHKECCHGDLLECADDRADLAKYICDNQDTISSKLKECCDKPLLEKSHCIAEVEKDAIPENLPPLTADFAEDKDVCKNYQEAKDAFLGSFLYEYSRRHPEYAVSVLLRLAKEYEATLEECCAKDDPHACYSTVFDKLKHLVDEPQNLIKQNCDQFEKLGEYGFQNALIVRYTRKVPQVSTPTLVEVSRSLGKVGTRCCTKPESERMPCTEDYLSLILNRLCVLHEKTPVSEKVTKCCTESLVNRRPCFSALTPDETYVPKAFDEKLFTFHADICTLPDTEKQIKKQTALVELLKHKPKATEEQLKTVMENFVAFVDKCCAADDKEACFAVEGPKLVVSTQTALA
# [6] = biological target: B1; experiment: pull-down from T cells with Gal-2-coated magnetic beads, Western blot; agrees with antibody blocking in flow cytometry
# Procedure: A) Cells were preincubated with CD3, CD7, and β1 mAb (1:100 dilution) for 1 h at RT and then cultured for additional 24 h in the presence of 5 μg/ml galectin-2 coupled to biotin. Cells were then harvested and binding of galectin-2 to T cells determined by two-color flow cytometry using streptavidin labelled-APC to detect biotinylated sites. B) Galectin-1 coimmunoprecipitates with CD3, CD7 and β1 integrin, whereas galectin-2 coimmunoprecipitate only with integrin β1. Cells were incubated with galectin-1 or -2 coated tosyl-activated beads and subsequently lysed. Bead-bound cell fragments were separated magnetically and immunoblotted for CD3, CD7 or β1. Both graphs are representative for four different experiments yielding similar results.
# For separation of galectin-2-associated complexes, 1×10⁸ tosylactivated, supermagnetic, polysterene coated beads (Dynalbeads, Dynal Biotech, Oslo, Norway) were coated either with 350 μg BSA, Galectin-1, Galectin-2, CD7, integrin-β1 or OKT3 overnight at 37° C. using tilt rotation. After incubation, the beads were washed in 0.2 M Tris (pH 8.5 containing 0.1% BSA), and then incubated with 2×10⁶ PBT for 1 h at 37° C. […]
molecule,measurement,setting,value
galectin-1: prototype β-galactoside binding lectin used for comparison,cells adhering to collagen type I,[1]; without galectin 22.1±3.5%,9.2±3.5%
same,cells adhering to fibronectin,[1]; without galectin 26.3±5.6%,14.0±4.6%
same,β4 integrin accessibility,[2],neither galectin-1 nor galectin-2 changed
same,integrin α5 accessibility,[2]; 50 μg/ml,downregulated
same,integrin β1 accessibility,[2]; 50 μg/ml,downregulated
same,integrin a5 accessibility,[2]; second statement,slightly upregulated
same,glycoproteins co-immunoprecipitated,[3],"coimmunoprecipitates with CD3, CD7 and β1 integrin"
same,cyclin B1 expression,[4],1%
B1,binding result,[5],no binding
B2,binding result,[6],no binding
